Measured values as given in patent US20240293352A1 (priority 2021, published 2024).

Tested on: VSVD51-GFP in 786-0 cells
Format: cell-based, human
Details: not given

Compound	Approximate Peak Viral Sensitizer Dose [µM]	Viral sensitization activity / VSVD51 spread (in words)
[O]=[V]([O-])([O-])[O-] [Vanadate, vanadate, reference compound]	200	increase in GFP foci
vanadium (IV) citrate [CDOS139]	–	exhibited viral sensitization activity
vanadium (V) citrate [CDOS140]	30	exhibited viral sensitization activity
vanadium (V) citrate peroxo [CDOS141]	50	exhibited viral sensitization activity

Tested on: oncolytic RNA viruses including vesicular stomatitis virus (VSV) and measles
Details: cited from earlier work

Compound	Replication and spread of oncolytic RNA viruses (in words)
Cc1occc(=O)c1[O-].Cc1occc(=O)c1[O-].[O]=[V+2] [BMOV, bismaltolatoxovanadate]	improve the replication and spread of oncolytic RNA viruses
[O]=[V]([O-])([O-])[O-] [orthovanadate]	improve the replication and spread of oncolytic RNA viruses
